Test results reported in BindingDB's records for doi:10.1021/acs.jmedchem.5b01170 (University of Arizona, 2015).

Biological target: Delta-type opioid receptor (Mus musculus, UniProt P32300)
Assay: Agonist activity at delta opioid receptor in ICR mouse isolated vas deferens assessed as inhibition of electrically-stimulated muscle contraction

Sequence of Delta-type opioid receptor (P32300 whole entry): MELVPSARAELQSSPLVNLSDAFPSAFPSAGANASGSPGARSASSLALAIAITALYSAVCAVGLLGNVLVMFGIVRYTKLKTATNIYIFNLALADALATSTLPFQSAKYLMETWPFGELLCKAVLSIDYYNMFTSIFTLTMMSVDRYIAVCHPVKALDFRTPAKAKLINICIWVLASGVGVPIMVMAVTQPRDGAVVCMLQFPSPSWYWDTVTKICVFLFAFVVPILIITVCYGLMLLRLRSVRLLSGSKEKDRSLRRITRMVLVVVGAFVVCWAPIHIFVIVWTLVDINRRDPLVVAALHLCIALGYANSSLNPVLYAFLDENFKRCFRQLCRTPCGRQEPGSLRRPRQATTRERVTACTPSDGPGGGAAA

`CC(C)C[C@H](NC(=O)[C@@H]1CCCN1C(=O)[C@H](Cc1ccc(F)cc1)NC(=O)CNC(=O)[C@@H](C)NC(=O)[C@@H](N)Cc1ccc(O)cc1)C(=O)N[C@@H](Cc1c[nH]c2ccccc12)C(=O)NCc1cc(C(F)(F)F)cc(C(F)(F)F)c1` showed an IC50 of 12 nM.
